Data on 2 molecules can be found in patent US7943601B2, “2-methylene-20-methyl-19,24,25,26,27-pentanor-vitamin D analogs” (Wisconsin Alumni Research Foundation, priority 2007, dated 2011).

One test deals with HL-60 cells. The test can be described thus: HL-60 differentiation (nitro blue tetrazolium reduction). The class given is cell-based, human. The conditions noted are these: four days, read-out: EC50, HL-60 cell differentiation. The protocol:
The study drugs were dissolved in ethanol and the concentrations determined using UV spectrophotometry. Serial dilutions were prepared so that a range of drug concentrations could be tested without changing the final concentration of ethanol (≦0.2%) present in the cell cultures.
Human promyelocytic leukemia (HL60) cells were grown in RPMI-1640 medium containing 10% fetal bovine serum. The cells were incubated at 37° C. in the presence of 5% CO2.
HL60 cells were plated at 1.2×10^5 cells/ml. Eighteen hours after plating, cells in duplicate were treated with drug. Four days later, the cells were harvested and a nitro blue tetrazolium reduction assay was performed (Collins et al., 1979; J. Exp. Med. 149:969-974). The percentage of differentiated cells was determined by counting a total of 200 cells and recording the number that contained intracellular black-blue formazan deposits. Verification of differentiation to monocytic cells was determined by measuring phagocytic activity (data not shown).

Test [1] deals with 24-hydroxylase (24Ohase) gene promoter. The test can be described thus: In vitro transcription assay, luciferase reporter in ROS 17/2.8 (bone) cells. The class given is cell-based. The conditions noted are these: ROS 17/2.8 cells, sixteen hours after dosing; read-out: EC50, transcriptional activity in bone cells (24-hydroxylase gene). As for the experimental part: Transcription activity was measured in ROS 17/2.8 (bone) cells that were stably transfected with a 24-hydroxylase (24Ohase) gene promoter upstream of a luciferase reporter gene (Arbour et al., 1998). Cells were given a range of doses. Sixteen hours after dosing the cells were harvested and luciferase activities were measured using a luminometer.
RLU=relative luciferase units.

Test [2] concerns vitamin D-deficient rats. The test can be described thus: Bone calcium mobilization (serum calcium). Type of test: in vivo, rat. The conditions noted are these: rats on low calcium diet (0.02%); for bone calcium mobilization (serum calcium levels): all dose levels tested, four ip doses. The protocol: (§1) Male, weanling Sprague-Dawley rats were placed on Diet 11 (0.47% Ca) diet+AEK oil for one week followed by Diet 11 (0.02% Ca)+AEK oil for 3 weeks. The rats were then switched to a diet containing 0.47% Ca for one week followed by two weeks on a diet containing 0.02% Ca. Dose administration began during the last week on 0.02% calcium diet. Four consecutive ip doses were given approximately 24 hours apart. Twenty-four hours after the last dose, blood was collected from the severed neck and the concentration of serum calcium determined as a measure of bone calcium mobilization. The first 10 cm of the intestine was also collected for intestinal calcium transport analysis using the everted gut sac method.

Test [3] has as its system vitamin D-deficient rats. The test can be described thus: Intestinal calcium transport (everted gut sac method). The class given is in vivo, rat. As for the experimental part: as §1
Test [4] has as its target T1, full-length recombinant rat vitamin D receptor (Rattus norvegicus, UniProt P13053).
T1 construct: Full-length recombinant rat receptor was expressed in E. coli; histidine tag (C); made in house; host or cells: E. coli BL21 (DE3) Codon Plus RIL
T1 sequence (P13053 1-423): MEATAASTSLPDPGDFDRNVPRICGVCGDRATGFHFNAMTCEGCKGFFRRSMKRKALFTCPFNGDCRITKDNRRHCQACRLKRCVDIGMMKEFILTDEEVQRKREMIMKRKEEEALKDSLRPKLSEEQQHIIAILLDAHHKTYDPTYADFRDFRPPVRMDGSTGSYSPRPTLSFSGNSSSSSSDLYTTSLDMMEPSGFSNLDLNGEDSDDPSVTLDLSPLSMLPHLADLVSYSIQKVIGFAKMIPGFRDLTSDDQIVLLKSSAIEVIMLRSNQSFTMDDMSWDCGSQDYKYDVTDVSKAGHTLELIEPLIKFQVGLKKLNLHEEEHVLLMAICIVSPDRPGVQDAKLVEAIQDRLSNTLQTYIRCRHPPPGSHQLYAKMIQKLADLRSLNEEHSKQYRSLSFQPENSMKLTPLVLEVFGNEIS
The test is described as follows: Vitamin D receptor binding, competition with [3H]-1,25(OH)2D3. The protocol: Full-length recombinant rat receptor was expressed in E. coli BL21 (DE3) Codon Plus RIL cells and purified to homogeneity using two different column chromatography systems. The first system was a nickel affinity resin that utilizes the C-terminal histidine tag on this protein. The protein that was eluted from this resin was further purified using ion exchange chromatography (S-Sepharose Fast Flow). Aliquots of the purified protein were quick frozen in liquid nitrogen and stored at −80° C. until use. For use in binding assays, the protein was diluted in TEDK50 (50 mM Tris, 1.5 mM EDTA, pH7.4, 5 mM DTT, 150 mM KCl) with 0.1% Chaps detergent. The receptor protein and ligand concentration were optimized such that no more than 20% of the added radiolabeled ligand was bound to the receptor.
Radiolabeled and unlabeled ligands were added to 100 mcl of the diluted protein at a final ethanol concentration of ≦10%, mixed and incubated overnight on ice to reach binding equilibrium. The following day, 100 mcl of hydroxylapatite slurry (50%) was added to each tube and mixed at 10-minute intervals for 30 minutes. The hydroxylapaptite was collected by centrifugation and then washed three times with Tris-EDTA buffer (50 mM Tris, 1.5 mM EDTA, pH 7.4) containing 0.5% Titron X-100. […] Total binding was determined from the tubes containing only radiolabeled ligand.

Setting [5] is: 260 pmol/day ip for 4 consecutive days, everted gut sac.

Read-outs that look alike come from different tables or passages of the source.

The term EC50 denotes the concentration at which the effect is half-maximal. In the case of `C=C1/C(=C\C=C2/CCC[C@]3(C)[C@@H]([C@H](C)CCCC(C)(C)O)CC[C@@H]23)C[C@@H](O)C[C@@H]1O` [1,25(OH)2D3, 1α,25-dihydroxyvitamin D3, reference compound], the EC50 in the test with HL-60 cells worked out at 4 nM; in test [1], 0.2 nM. Moreover, the “bone calcium mobilization (serum calcium levels)” value with vitamin D-deficient rats [2] was “increased serum calcium levels at all dosages”. The intestinal calcium transport entry with vitamin D-deficient rats [3] (setting [5]) was “promotes a significant increase”.
For orientation: Ki means the dissociation constant of the complex between target and ligand, obtained from inhibition or displacement. For `C=C1[C@H](O)CC(=C/C=C2\CCC[C@]3(C)[C@@H](C(C)(C)CC)CC[C@@H]23)C[C@H]1O` [20DCM, 2-methylene-20-methyl-1α-hydroxy-19,24,25,26,27-pentanor-vitamin D3], in test [4] (compared to 1,25(OH)2D3), the “affinity for the vitamin D receptor relative to 1,25(OH)2D3” value was “approximately one-half log less affinity”. In addition, the Ki in test [4] (full-length recombinant rat vitamin D receptor, read-out: Ki, competition with [3H]-1,25(OH)2D3 for binding to VDR) came out at 0.08 nM. Besides, the EC50 in the test on HL-60 cells (Homo sapiens, 96 h) came out at 10 nM; in test [1], 4 nM. For the same molecule, the bone calcium mobilization result in the test on vitamin D-deficient rats [2] (260 pmol/day ip for 4 consecutive days) is reported as “did not result in mobilization of bone calcium”; with vitamin D-deficient rats [2] (7020 pmol/day ip for 4 consecutive days), “without effect”. Further, the “bone calcium mobilization (serum calcium levels)” value in the test with vitamin D-deficient rats [2] is “does not have any measurable activity”. In addition, the intestinal calcium transport entry in the test with vitamin D-deficient rats [3] (setting [5]) is “promotes intestinal calcium transport only slightly”; with vitamin D-deficient rats [3] (7020 pmol/day ip for 4 consecutive days, everted gut sac), “no significant intestinal calcium transport activity”; in the test on vitamin D-deficient rats [3] (four consecutive ip doses, doses tested, compared to 1,25(OH)2D3), “very little activity”.
